# System: normal human lung fibroblasts
# Assay: Ribosomal profiling: translational efficiency in TGFβ-treated fibroblasts
# Type: cell-based
# How it was run: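 Genome-wide RPF and total RNA libraries (ARTseq, RNA-Seq) were made from lysates of cycloheximide-treated, PBS-washed cells. After trimming and human-genome mapping, per-gene coding-region counts were compared between RPF and RNA for translational efficiency. Genes scoring low in either fraction were dropped.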
substance,measurement,setting,value
TGFβ,Log2 TE RPS20,"ENSG00000008988, 5 replicates",1.435
same,change in translational profile of DNASE1L1 caused by TGFβ,"ENSG00000013563, Control vs. TGFβ",D (D = <1.0 to 1.5)
same,Log2 TE VIM,"ENSG00000026025, 5 replicates",1.002
same,Log2 TE ARHGAP6,"ENSG00000047648, 5 replicates",−1.082
same,Log2 TE KITLG,"ENSG00000049130, 5 replicates",−2.027
same,change in translational profile of KITLG caused by TGFβ,"ENSG00000049130, Control vs. TGFβ",A (A = <−2.5)
same,Log2 TE ADAMTS6,"ENSG00000049192, 5 replicates",2.863
same,change in translational profile of ADAMTS6 caused by TGFβ,"ENSG00000049192, Control vs. TGFβ",F (F = >2.5)
same,Log2 TE LETMD1,"ENSG00000050426, 5 replicates",1.27
same,change in translational profile of LETMD1 caused by TGFβ,"ENSG00000050426, Control vs. TGFβ",D (D = <1.0 to 1.5)
same,change in translational profile of PLEKHA5 caused by TGFβ,"ENSG00000052126, Control vs. TGFβ",C (C = <−1.0 to −1.5)
same,Log2 TE LAMA3,"ENSG00000053747, 5 replicates",−1.233
same,Log2 TE SYNE2,"ENSG00000054654, 5 replicates",−1.793
same,change in translational profile of EIF4B caused by TGFβ,"ENSG00000063046, Control vs. TGFβ",E (E = <1.5 to 2.5)
same,Log2 TE RPL18,"ENSG00000063177, 5 replicates",1.612
same,change in translational profile of RPL18 caused by TGFβ,"ENSG00000063177, Control vs. TGFβ",E (E = <1.5 to 2.5)
same,Log2 TE LIMCH1,"ENSG00000064042, 5 replicates",−1.222
same,change in translational profile of HIPK2 caused by TGFβ,"ENSG00000064393, Control vs. TGFβ",C (C = <−1.0 to −1.5)
same,Log2 TE ASPM,"ENSG00000066279, 5 replicates",−2.175
same,change in translational profile of ASPM caused by TGFβ,"ENSG00000066279, Control vs. TGFβ",A (A = <−2.5)
same,change in translational profile of RASSF1 caused by TGFβ,"ENSG00000068028, Control vs. TGFβ",D (D = <1.0 to 1.5)
same,Log2 TE PABPC1,"ENSG00000070756, 5 replicates",1.207
same,change in translational profile of PABPC1 caused by TGFβ,"ENSG00000070756, Control vs. TGFβ",D (D = <1.0 to 1.5)
same,Log2 TE RPL31,"ENSG00000071082, 5 replicates",1.6
same,change in translational profile of RPL31 caused by TGFβ,"ENSG00000071082, Control vs. TGFβ",E (E = <1.5 to 2.5)
same,Log2 TE PLD1,"ENSG00000075651, 5 replicates",−1.032
same,change in translational profile of PLD1 caused by TGFβ,"ENSG00000075651, Control vs. TGFβ",B (B = <−1.5 to −2.5)
same,Log2 TE SNRPA,"ENSG00000077312, 5 replicates",1.462
same,change in translational profile of EDN1 caused by TGFβ,"ENSG00000078401, Control vs. TGFβ",E (E = <1.5 to 2.5)
same,Log2 TE CDC14B,"ENSG00000081377, 5 replicates",−1.331
same,Log2 TE RPS5,"ENSG00000083845, 5 replicates",1.533
same,Log2 TE AURKA,"ENSG00000087586, 5 replicates",−1.736
same,change in translational profile of AURKA caused by TGFβ,"ENSG00000087586, Control vs. TGFβ",B (B = <−1.5 to −2.5)
same,Log2 TE EPB41L1,"ENSG00000088367, 5 replicates",1.018
same,change in translational profile of EPB41L1 caused by TGFβ,"ENSG00000088367, Control vs. TGFβ",D (D = <1.0 to 1.5)
same,Log2 TE ARHGAP28,"ENSG00000088756, 5 replicates",−1.024
same,Log2 TE RPL6,"ENSG00000089009, 5 replicates",1.107
same,change in translational profile of RPL6 caused by TGFβ,"ENSG00000089009, Control vs. TGFβ",D (D = <1.0 to 1.5)
same,change in translational profile of P2RX7 caused by TGFβ,"ENSG00000089041, Control vs. TGFβ",B (B = <−1.5 to −2.5)
same,change in translational profile of KDM2B caused by TGFβ,"ENSG00000089094, Control vs. TGFβ",C (C = <−1.0 to −1.5)
same,change in translational profile of RPLP0 caused by TGFβ,"ENSG00000089157, Control vs. TGFβ",D (D = <1.0 to 1.5)
same,Log2 TE IGBP1,"ENSG00000089289, 5 replicates",1.266
same,change in translational profile of IGBP1 caused by TGFβ,"ENSG00000089289, Control vs. TGFβ",E (E = <1.5 to 2.5)
same,Log2 TE GRAMD1A,"ENSG00000089351, 5 replicates",1.069
same,Log2 TE IRAK3,"ENSG00000090376, 5 replicates",−1.017
same,change in translational profile of IRAK3 caused by TGFβ,"ENSG00000090376, Control vs. TGFβ",C (C = <−1.0 to −1.5)
same,change in translational profile of PABPC4 caused by TGFβ,"ENSG00000090621, Control vs. TGFβ",D (D = <1.0 to 1.5)
same,Log2 TE FMO2,"ENSG00000094963, 5 replicates",−2.146
same,change in translational profile of FMO2 caused by TGFβ,"ENSG00000094963, Control vs. TGFβ",A (A = <−2.5)
same,Log2 TE ACOT7,"ENSG00000097021, 5 replicates",1.011
same,change in translational profile of ACOT7 caused by TGFβ,"ENSG00000097021, Control vs. TGFβ",D (D = <1.0 to 1.5)
same,change in translational profile of ATP5D caused by TGFβ,"ENSG00000099624, Control vs. TGFβ",D (D = <1.0 to 1.5)
same,change in translational profile of LGALS1 caused by TGFβ,"ENSG00000100097, Control vs. TGFβ",D (D = <1.0 to 1.5)
same,Log2 TE EIF3L,"ENSG00000100129, 5 replicates",1.429
same,change in translational profile of EIF3L caused by TGFβ,"ENSG00000100129, Control vs. TGFβ",D (D = <1.0 to 1.5)
same,Log2 TE RPL3,"ENSG00000100316, 5 replicates",1.78
same,change in translational profile of RPL3 caused by TGFβ,"ENSG00000100316, Control vs. TGFβ",E (E = <1.5 to 2.5)
same,Log2 TE TIMM9,"ENSG00000100575, 5 replicates",1.113

# — US9993494B2, “Compositions and methods for treating fibrotic disease” (eFFECTOR Therapeutics, Inc., priority 2014, dated 2018)
